The values below come from paper PMC7354438 (Viruses, 2020).

Counter-ions that a name gives are not always drawn.

For one assay, the system named is hCoV-19/Norway/Trondheim-E9/2020. Briefly: Drug test: viability of SARS-CoV-2-infected Vero-E6 cells (CellTiter-Glo). Also on record: AUC: unit not given beside the values. The settings on record: 72 h. The assay is classed as cell-based.
Consider Abamectin, for which the AUC is recorded as 151,97.
Take `CC[C@@]1([C@@H]2O[C@@H]([C@H]3O[C@@](O)(CO)[C@H](C)C[C@@H]3C)C[C@@H]2C)CC[C@H]([C@]2(C)CC[C@]3(C[C@H](O)[C@@H](C)[C@@H]([C@@H](C)[C@@H](OC)[C@H](C)C(=O)O)O3)O2)O1` [Monensin]: the AUC is 254,31.
On the same count and under the same terms, in the case of Pentosan polysulfate it was 123,06; in that of `COc1ccc(CC(C)NCC(O)c2ccc(O)c(NC=O)c2)cc1` (stereo not drawn) [Formoterol], 203,77; in that of `CCCCCCCCCCNCCN[C@@]1(C)C[C@H](O[C@H]2[C@H](Oc3c4cc5cc3Oc3ccc(cc3Cl)[C@@H](O)[C@@H](NC(=O)[C@@H](CC(C)C)NC)C(=O)N[C@@H](CC(N)=O)C(=O)N[C@H]5C(=O)N[C@H]3C(=O)N[C@H](C(=O)N[C@H](C(=O)O)c5cc(O)c(CNCP(=O)(O)O)c(O)c5-c5cc3ccc5O)[C@H](O)c3ccc(c(Cl)c3)O4)O[C@H](CO)[C@@H](O)[C@@H]2O)O[C@@H](C)[C@H]1O` [Telavancin], 139,65.
On the same count and under the same terms, in the case of `C[C@]12Cc3c[nH]nc3C[C@@H]1CC[C@@H]1[C@@H]2CC[C@@]2(C)[C@H]1CC[C@]2(C)O` [Stanozolol] it was 161,7; in that of Doxycycline hyclate, 143,99; in that of `Cc1ccc(C(=O)Nc2ccc(S(=O)(=O)O)c3cc(S(=O)(=O)O)cc(S(=O)(=O)O)c23)cc1NC(=O)c1cccc(NC(=O)Nc2cccc(C(=O)Nc3cc(C(=O)Nc4ccc(S(=O)(=O)O)c5cc(S(=O)(=O)O)cc(S(=O)(=O)O)c45)ccc3C)c2)c1` [Suramin], 94,57.
For the compound `CC(C)C[C@H]1C(=O)N2CCC[C@H]2[C@]2(O)O[C@](NC(=O)[C@@H]3C=C4c5cccc6[nH]c(Br)c(c56)C[C@H]4N(C)C3)(C(C)C)C(=O)N12.CS(=O)(=O)O` [Bromcriptine mesilate], the AUC is reported as 59,71.
Still for that read-out and setting: as for `C[C@@H]1O[C@@H](O[C@H]2C[C@@H](O)[C@]3(CO)[C@H]4[C@H](O)C[C@]5(C)[C@@H](C6=CC(=O)OC6)CC[C@]5(O)[C@@H]4CC[C@]3(O)C2)[C@H](O)[C@H](O)[C@H]1O` [Ouabain octahydrate], the figure is 41,93.
With `N=C(N)c1ccc2cc(OC(=O)c3ccc(N=C(N)N)cc3)ccc2c1` [Nafamostat], the AUC is reported as 166,53.
Consider `COc1ccc2cc3[n+](cc2c1OC)CCc1cc2c(cc1-3)OCO2` [Berberine], for which the AUC is 236,67.
With `CC(=O)O[C@H]1C[C@H](O[C@H]2[C@@H](O)C[C@H](O[C@H]3[C@@H](O)C[C@H](O[C@H]4CC[C@@]5(C)[C@H](CC[C@@H]6[C@@H]5C[C@@H](O)[C@]5(C)[C@@H](C7=CC(=O)OC7)CC[C@]65O)C4)O[C@@H]3C)O[C@@H]2C)O[C@H](C)[C@H]1O[C@@H]1O[C@H](CO)[C@@H](O)[C@H](O)[C@H]1O` [Lanatoside C], the AUC is on record as 54,25.
On to `NCCCC(N)(C(=O)O)C(F)F` (stereo not drawn) [DFMO (Difluoromethylomithine), Difluoromethylomithine], for which the AUC is 142,66.
Teicoplanin: the AUC was 145,39.
Turning to `CN[C@H]1C(=O)N[C@@H]2Cc3ccc(cc3)Oc3cc4cc(c3O[C@@H]3O[C@H](C(=O)O)[C@@H](O)[C@H](O)[C@H]3NC(=O)CCCCCCCCC(C)C)Oc3ccc(cc3Cl)[C@@H](O)[C@@H]3NC(=O)[C@H](NC(=O)[C@@H]4NC(=O)[C@@H](NC2=O)c2cc(cc(O)c2Cl)Oc2cc1ccc2O)c1ccc(O)c(c1)-c1c(O[C@H]2O[C@H](CO)[C@@H](O)[C@H](O)[C@@H]2O)cc(O)cc1[C@@H](C(=O)NCCCN(C)C)NC3=O` [Dalbavancin], the AUC is recorded as 136,29.

Staying with this assay, now noted: area under the dose-response curve of viability of virus-infected Vero-E6 cells; moi 0.1; 72 h; 7 concentrations; decimal comma.
`Cc1c(-c2ccc(-c3ccccc3F)cc2)nc2ccc(F)cc2c1C(=O)O` [Brequinar]: the AUC was 260,54.
On to `CCN(CCO)CCCC(C)Nc1ccnc2cc(Cl)ccc12` (stereo not drawn) [Hydroxychloroquine], for which the AUC was 147,63.
Consider `COc1ccc([C@@H]2Sc3ccccc3N(CCN(C)C)C(=O)[C@@H]2OC(C)=O)cc1` [Diltiazem], for which the AUC is given as 99,61.
Consider `Cc1cc(CCCOc2c(C)cc(-c3noc(C(F)(F)F)n3)cc2C)on1` [Pleconaril], for which the AUC is 141,75.
Still for that read-out and setting: in the case of `Nc1nc(Cl)nc2c1ncn2[C@@H]1O[C@H](CO)[C@@H](O)[C@@H]1F` [Clofarabine] it was 112,42.
Regarding `CCCCNc1cc(C(=O)O)cc(S(N)(=O)=O)c1Oc1ccccc1` [Bumetanide], the AUC is listed as 87,85.
In the case of `COc1ccc2[nH]c([S+]([O-])Cc3ncc(C)c(OC)c3C)nc2c1` (stereo not drawn) [Omeprazole], the AUC was 139,02.
Still for that read-out and setting: in the case of `Cc1cccc(C)c1OCC(=O)N[C@@H](Cc1ccccc1)[C@@H](O)C[C@H](Cc1ccccc1)NC(=O)[C@H](C(C)C)N1CCCNC1=O` [Lopinavir] it was 157,36; in that of `Nc1ncnc2c([C@@H]3N[C@H](CO)[C@@H](O)[C@H]3O)c[nH]c12` [BCX4430 (galidesivir), galidesivir], 94,08.
Take `CN(C)C(=N)N=C(N)N` [Metformin (1,1-Dimethylbiguanide), 1,1-Dimethylbiguanide]: the AUC is on record as 116,76.
On to `CCN(CC)CCOc1ccc2c(c1)C(=O)c1cc(OCCN(CC)CC)ccc1-2` [Tilorone (dihydrochloride), Tilorone], for which the AUC was 83,72.
For `CN(C)CCOc1ccc(/C(=C(/CCCl)c2ccccc2)c2ccccc2)cc1` [Toremifene], the AUC is 27,02.
The same measure, in the same setting: in the case of `O=C(/C=C\n1cnc(-c2cc(C(F)(F)F)cc(C(F)(F)F)c2)n1)NNc1ccccn1` [Verdinexor] it was 83,93; in that of `CC(C)Nc1nc2cc(Cl)c(Cl)cc2n1[C@H]1O[C@@H](CO)[C@H](O)[C@@H]1O` [Maribavir], 145,81; in that of `COc1ccc2nc([S@@+]([O-])Cc3ncc(C)c(OC)c3C)[nH]c2c1` [Esomeprazole], 177,52.
As to `CN(C)CCCN1c2ccccc2Sc2ccc(Cl)cc21` [Chlorpromazine hydrochloride], the AUC is 86,52.
Regarding `COc1cc2ncnc(Nc3ccc(F)c(Cl)c3)c2cc1OCCCN1CCOCC1` [Gefitinib], the AUC was 188,86.
`O=c1cc(-c2ccc(O)c(O)c2)oc2cc(O)cc(O)c12` [Luteolin]: the AUC is 119,07.
Take `Cc1oncc1C(=O)Nc1ccc(C(F)(F)F)cc1` [Leflunomide]: the AUC is 47,95.
On the same count and under the same terms, as for `CC[C@@]1(O)C(=O)OCc2c1cc1n(c2=O)Cc2cc3c(CN(C)C)c(O)ccc3nc2-1` [Topotecan], the figure is 124,6; as for `CNC(=O)c1cc(Oc2ccc(NC(=O)Nc3ccc(Cl)c(C(F)(F)F)c3)c(F)c2)ccn1` [Regorafenib], 24,12.
In the case of `CC(=O)OCC(CCn1cnc2cnc(N)nc21)COC(C)=O` [Famciclovir], the AUC is reported as 149,52.
Consider `COc1c(C)c2c(c(O)c1C/C=C(\C)CCC(=O)O)C(=O)OC2` [Mycophenolic acid], for which the AUC is given as 103,74.
`Nc1ccn([C@@H]2O[C@H](CO)[C@@H](O)C2(F)F)c(=O)n1` [Gemcitabine]: the AUC is 92,89.
`N=C(N)NC(=O)c1nc(Cl)c(N)nc1N` [Amiloride (EIPA)]: the AUC is 182,56.
Consider `C#Cc1cccc(Nc2ncnc3cc(OCCOC)c(OCCOC)cc23)c1` [Erlotinib], for which the AUC is reported as 103,46.
As for `COc1cccc(N2CCN(C3=Nc4c(F)cccc4[C@H](CC(=O)O)N3c3cc(C(F)(F)F)ccc3OC)CC2)c1` [Letermovir], the AUC is recorded as 134,12.
Consider `CNC(=O)c1cc(Oc2ccc(NC(=O)Nc3ccc(Cl)c(C(F)(F)F)c3)cc2)ccn1` [Sorafenib (BAY 43-9006), Sorafenib], for which the AUC was 33,12.
On the same count and under the same terms, in the case of `CC(C)(C)c1cnc(CSc2cnc(NC(=O)C3CCNCC3)s2)o1` [SNS-032] it was 96,25; in that of `O=C1c2c(O)ccc(O)c2C(=O)c2c(NCCNCCO)ccc(NCCNCCO)c21` [Mitoxantrone], 125,09.
Consider `O=C(Nc1ccc([N+](=O)[O-])cc1Cl)c1cc(Cl)ccc1O` [Niclosamide], for which the AUC is given as 149,52.
`CC(C)COCC(CN(Cc1ccccc1)c1ccccc1)N1CCCC1` (stereo not drawn) [Bepridil]: the AUC is reported as 285,95.
`CC/C(=C(\c1ccccc1)c1ccc(OCCN(C)C)cc1)c1ccccc1` [Tamoxifen]: the AUC is reported as 54,67.
`O=C1[C@H](CC[C@H](O)c2ccc(F)cc2)[C@@H](c2ccc(O)cc2)N1c1ccc(F)cc1` [Ezetimibe]: the AUC is 138,39.
As to `NC(=O)c1nc(F)c[nH]c1=O` [Favipiravir (T-705), Favipiravir], the AUC is reported as 136,64.
On to `CC1=C(/C=C/C(C)=C/C=C/C(C)=C/C(=O)Nc2ccc(O)cc2)C(C)(C)CCC1` [Fenretinide (4-HPR), Fenretinide], for which the AUC was 137,9.
As for `C[C@H]1[C@H](OC(=O)CCC(=O)O)O[C@@H]2O[C@@]3(C)CC[C@H]4[C@H](C)CC[C@@H]1[C@@]24OO3` [Artesunate], the AUC is on record as 222,25.
For the compound `CNCCC(Oc1ccc(C(F)(F)F)cc1)c1ccccc1` (stereo not drawn) [Fluoxetine], the AUC is 104,37.
`CCn1cc(C(=O)O)c(=O)c2cc(F)c(N3CCNCC3)nc21` [Enoxacin]: the AUC is on record as 118,23.
Same read-out and setting: in the case of `Nc1ccn(C[C@@H](CO)OCP(=O)(O)O)c(=O)n1` [Cidofovir] it was 144,69; in that of `CN(C)C(=O)COC(=O)Cc1ccc(OC(=O)c2ccc(NC(=N)N)cc2)cc1` [Camostat], 88,41.
For `CC(C)c1nc(CN(C)C(=O)N[C@H](C(=O)N[C@@H](Cc2ccccc2)C[C@H](O)[C@H](Cc2ccccc2)NC(=O)OCc2cncs2)C(C)C)cs1` [Ritonavir], the AUC is 137,69.
Consider `CC(=O)Oc1ccccc1C(=O)Nc1ncc([N+](=O)[O-])s1` [Nitazoxanide], for which the AUC was 120,33.
On the same count and under the same terms, as for `Cn1c(=O)c2c(ncn2C)n(C)c1=O` [Caffeine], the figure is 147,28; as for `O=c1c(-c2ccc(O)cc2)coc2cc(O[C@@H]3O[C@H](CO)[C@@H](O)[C@H](O)[C@H]3O)cc(O)c12` [Genistin], 54,1.
Take `CC(=O)N[C@@H](CS)C(=O)O` [Acetylcysteine]: the AUC is 43,47.
Consider `CN(Cc1cc(Br)cc(Br)c1N)C1CCCCC1` [Bromhexine HCl], for which the AUC is listed as 124,95.
